Series [1] deals with Leishmania donovani. Description: GSK_TCAKS: pIC50 Leishmania donovani viability assay using fluorescence intensity. Assay plates (1536-well) were prepared by adding 30nL per well of compound. For single shot assay, the final compound concentration was 5uM. […] Briefly, eGFP LdBOB axenic amastigotes were harvested, fixed and counted in a CASY cell counter (Roche-Applied Science). A final concentration of 1.5 * 10^5 cells per well were prepared in amastigote media containing 500 U/mL penicillin/streptomycin (Invitrogen) and 6uL was dispensed to each experimental well using a Multidrop Combi dispenser (Thermo Scientific). 6uL of assay media was dispensed to control columns used as reference for 100% compound response. Following incubation for 72 h at 37C, 5% CO2, 2 uL of resazurin was added to each well at a final concentration of 0.5 mM in phosphate buffered saline (PBS) with IGEPAL (Sigma-Aldrich), 0.05% (v/v). Type of series: functional, organism-based. For orientation: The colour change of resazurin is a common sign of viable cells or microbes.

Series [2] relates to Trypanosoma cruzi. Briefly: GSK_TCAKS: pIC50 Trypanosoma cruzi viability assay using beta-GAL activity. This assay was run at single shot at 5uM compound concentration per well. The biological reagents consisted of NIH-3T3 host cells and trypomastigotes parasitic cells; both cell types were set to a 3.3 * 10^5 cells/mL dilution in assay DMEM by means of a CASY cell counter device using a 60um capillary. 6 uL of the mixture were dispensed per well (about 1 * 10^3 host-cells and 1 * 10^3 parasites) with a Multidrop Combi dispenser. […] In all wells, the percentage of DMSO never exceeded 0.5%. Plates incubated for four days at 37C, 5% CO2. The substrate used for the assay fluorescence intensity (FLINT) readout was resorufin-beta-D-galactopiranoside (Sigma-Aldrich) at 5uM per well. It was diluted in PBS supplemented with the soft detergent Igepal (Fluka). Type of series: functional, organism-based, Mus musculus. The conditions noted are these: Tulahuen, NIH3T3.

A further series relates to NIH3T3. Description: GSK_TCAKS: pIC50 NIH 3T3 cell line viability assay using luminiscence. Tissue culture surface treated assay plates (1536-well) were used. […] The 100% cells survival control was determined exposing the host-cells to a 0.5% DMSO concentration, whereas the 100% toxicity control was achieved by seeding the cells in presence of Amphotericin B at 50uM. Plates were incubated for four days at 37C, 5% CO2. The assay readout was developed by addition of 5uL of CellTiter-Glo Reagent following the manufacturer's instructions. Luminiscence was measured using a ViewLux. Type of series: functional, cell-based. The conditions noted are these: Mus musculus, NIH3T3, 96 h. On the technique in general: ATP-based viability assays read luminescence as a measure of living cells.

Series [3] has as its system Leishmania donovani. Description: GSK_TCAKS: pIC50 Leishmania donovani Imaging: Infected Macrophages. Assay plates (384-well) were prepared by adding 250nL of compound to each well. For single shot assay, the final compound concentration was 5 uM. […] Automated image analysis was performed with a script developed on Acapella High Content Imaging and Analysis Software (PerkinElmer). Output: Percent of infected macrophage cells were reported for each well. It counts as functional, organism-based, Homo sapiens. The conditions noted are these: THP-1.

In series [4] the test system is Leishmania donovani. Description: GSK_TCAKS: pIC50 Leishmania donovani Imaging: THP-1 Host Macrophages. Assay plates (384-well) were prepared by adding 250nL of compound to each well. For single shot assay, the final compound concentration was 5 uM. […] Automated image analysis was performed with a script developed on Acapella High Content Imaging and Analysis Software (PerkinElmer). Output: THP-1 cell count were reported for each well. It counts as functional, organism-based, Homo sapiens.

The subject of series [5] is Trypanosoma cruzi. Description: (§1) GSK_TCAKS: pIC50 H2C9 Imaging: H9c2 Host Cardiomyocytes. […] Cells were then washed once with PBS before infection. T. cruzi trypomastigotes, collected at days 5 to 8 after infection from LLC-MK2 parasite infected cultures, were allowed to swim out for 4h at 37C from a centrifuged pellet (2,500 rpm/10 min/room temperature). Trypomastigotes were then collected and counted in a CASY Cell Counter. Trypomastigotes, in supplemented DMEM, were added to H9c2 cultures in a multiplicity of infection of 1 and incubated for 18 h. Cells were washed once with PBS before incubation of the infected H9c2 monolayer with trypsin (Life-Technologies) to detach cells from the flask. Cells were counted in a CASY Cell Counter using a 150 um capillary and their density set at 5 * 10^4 cells per mL in supplemented assay DMEM. Infected H9c2 were dispensed into 384-well poly-lysine coated assay plates at 50uL per well using a Multidrop Combi dispenser. After seeding them, the plates were incubated at 37C, 5% CO2 for 72h. Cultures were then fixed and stained by addition of 50 uL of a solution containing 8% formaldehyde and 4 uM DRAQ5 DNA dye (BioStatus, UK) per well. […] Five images were collected per well for reliable statistical analysis. Automated image analysis was performed with a script developed on Acapella High Content Imaging and Analysis Software (PerkinElmer). Output: Number of H9c2 Host Cardiomyocytes nuclei to determine drug-related cytotoxicity. It counts as functional, organism-based, Rattus norvegicus. The conditions noted are these: H9c2, 4 h.

For series [6], the system named is Leishmania donovani. Description: GSK_TCAKS: pIC50 Leishmania donovani Imaging: Amastigotes/Macrophages. Assay plates (384-well) were prepared by adding 250nL of compound to each well. For single shot assay, the final compound concentration was 5 uM. […] Automated image analysis was performed with a script developed on Acapella High Content Imaging and Analysis Software (PerkinElmer). Output: Average number of amastigotes per macrophage cell were reported for each well. Type of series: functional, organism-based, Homo sapiens. The conditions noted are these: THP-1.

Series [7] addresses Sterol 14-alpha demethylase (Trypanosoma cruzi (strain CL Brener), UniProt Q7Z1V1). Briefly: GSK_TCAKS: pIC50 CYP51 from Trypanosoma cruzi. Type of series: functional.
Series [8] concerns Trypanosoma brucei brucei. Briefly: GSK_TCAKS: pIC50 Trypanosoma brucei viability assay using luminiscence. Assay plates (1536-well) were prepared. T. brucei cultures were harvested and counted in a CASY cell counter. A parasite suspension was prepared at a final concentration of 5 * 10^4 cells/mL in complete HMI9 medium and 6uL was dispensed to all wells containing compounds using a Multidrop Combi dispenser. 6uL of HMI9 media with 0.4% DMSO were dispensed to control columns. Plates were incubated for 24 h at 37C, 5% CO2 then tempered for 10 min at room temperature. ATP content was quantified by adding 4 uL of CellTiter-Glo Reagent (Promega) according to the manufacturer's instructions. Luminescence was measured using a ViewLux. It counts as functional, organism-based. The conditions noted are these: Lister 427, CASY.

Series [9] has as its system Trypanosoma cruzi. The series is described as §1, with “Trypanosoma cruzi” for “H2C9”, “Infected Cells.” for “H9c2 Host Cardiomyocytes.”, “percentage” for “Number”, “infected cells per well as a second infection marker.” for “H9c2 Host Cardiomyocytes nuclei to determine drug-related cytotoxicity.”. The conditions noted are these: H9c2, 4 h. Type of series: functional, organism-based, Rattus norvegicus.

The test system of series [10] is Trypanosoma cruzi. The series is described as §1, with “Trypanosoma cruzi” for “H2C9”, “Amastigotes/Cell.” for “H9c2 Host Cardiomyocytes.”, “number” for “Number”, “amastigotes per cell as infection level measurement.” for “H9c2 Host Cardiomyocytes nuclei to determine drug-related cytotoxicity.”. It counts as functional, organism-based, Rattus norvegicus. The conditions noted are these: H9c2, 4 h.

Series [11] has as its system Trypanosoma brucei brucei. Briefly: GSK_TCAKS: pIC50 Trypanosoma brucei viability assay using fluorescence intensity. Assay plates (1536-well) were prepared by dispensing 25nL of compound solution per well using an Echo acoustic dispenser (Labcyte). It counts as functional, organism-based. The conditions noted are these: Lister 427, 2 h.
Series [12] is described as follows: GSK_TCAKS: pIC50 HepG2 human cell line viability assay using luminiscence. […] Seeding density was checked to ensure that new mono-layers were not more than 50% confluent at the time of harvesting. Cell suspension was added to 500 mL of the same medium at a final density of 1.2 * 10^5 cells/mL. This cell suspension was dispensed (25 uL, 3000 cells per well) into 384-well clear-bottom plates using a Multidrop Combi dispenser. Prior to addition of the cell suspension, the screening compounds (250 nL) were pre-dispensed into the plates with an Echo liquid handler. Plates were incubated for 48 h at 37C, 5% CO2. After incubation, plates equilibrated at room temperature for 30 min before proceeding to develop the luminescent signal. The signal developer, CellTiter-Glo Reagent, was allowed to equilibrate at room temperature for 30 min and added to the plates (25uL per well) using a Multidrop Combi dispenser. Plates were left for 10 min at room temperature for stabilization and then read using a ViewLux. Type of series: toxicity, cell-based.

This is an account of results in ChEMBL document CHEMBL3430912, “GSK Tres Cantos Anti-Kinetoplastid Screening (TCAKS) Data”.

Chain of Sterol 14-alpha demethylase (Q7Z1V1 whole entry): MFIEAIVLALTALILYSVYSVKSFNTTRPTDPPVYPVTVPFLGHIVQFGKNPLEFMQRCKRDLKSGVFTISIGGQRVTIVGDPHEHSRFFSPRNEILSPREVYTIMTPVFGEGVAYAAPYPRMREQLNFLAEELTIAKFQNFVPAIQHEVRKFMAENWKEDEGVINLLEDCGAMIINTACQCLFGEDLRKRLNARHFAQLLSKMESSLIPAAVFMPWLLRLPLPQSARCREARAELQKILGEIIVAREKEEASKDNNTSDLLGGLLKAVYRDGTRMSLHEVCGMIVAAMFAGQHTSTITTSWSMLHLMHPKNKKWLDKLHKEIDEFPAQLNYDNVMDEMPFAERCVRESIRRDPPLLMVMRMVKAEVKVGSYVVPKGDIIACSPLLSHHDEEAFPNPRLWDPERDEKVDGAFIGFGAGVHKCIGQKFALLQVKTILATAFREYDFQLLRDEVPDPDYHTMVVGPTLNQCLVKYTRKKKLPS

As a reminder, the IC50 is the concentration that inhibits the measured activity by half. For the compound `Cc1ccc2nc(N(Cc3cccnc3)C(=O)CCc3ccccc3)sc2c1`, the IC50 is 25.1 µM in the series with Leishmania donovani [1]; 0.0398 µM in the series with Trypanosoma cruzi [2]; 15.8 µM in the series with NIH3T3; greater than 50.1 µM with Leishmania donovani [3]; greater than 50.1 µM in the series with Leishmania donovani [4]; greater than 50.1 µM with Trypanosoma cruzi [5]. Further, the IC50 with Leishmania donovani [6] was greater than 50.1 µM; in series [7], 0.0631 µM; in series [8], 20 µM; in the series with Trypanosoma cruzi [9], 0.0398 µM; in the series on Trypanosoma cruzi [10], 0.0316 µM; in series [11] it was 12.6 µM. Also, the IC50 at 48 h in [12] was greater than 100 µM.
As to `O=S(=O)(NCC(c1cccnc1)N1CCN(c2ccc(F)cc2)CC1)c1cccs1` (stereo not given), the concentration for half-maximal inhibition (IC50) is greater than 50.1 µM with Leishmania donovani [1]; 0.158 µM with Trypanosoma cruzi [2]; greater than 50.1 µM in the series with NIH3T3; greater than 50.1 µM with Leishmania donovani [3]; greater than 50.1 µM in the series with Leishmania donovani [4]; greater than 50.1 µM in the series with Trypanosoma cruzi [5]. The IC50 with Leishmania donovani [6] is greater than 50.1 µM; in [7] it was 0.0398 µM; in series [8] it was greater than 39.8 µM; with Trypanosoma cruzi [9] it was 0.126 µM; in the series with Trypanosoma cruzi [10] it was 0.126 µM; in [11] it was greater than 39.8 µM. In series [12], this compound gave an IC50 at 48 h greater than 100 µM.
For `CC(C(=O)Nc1ccc(Br)cc1)N1CCN(c2ccc([N+](=O)[O-])cc2)CC1` (stereo not given), the IC50 is greater than 50.1 µM in the series on Leishmania donovani [1]; 2.51 µM in the series with Trypanosoma cruzi [2]; greater than 50.1 µM in the series on NIH3T3; greater than 50.1 µM with Leishmania donovani [3]; greater than 50.1 µM in the series on Leishmania donovani [4]; greater than 50.1 µM in the series on Trypanosoma cruzi [5]. The IC50 was greater than 50.1 µM in the series on Leishmania donovani [6]; 39.8 µM in [7]; greater than 39.8 µM in series [8]; 2.51 µM in the series on Trypanosoma cruzi [9]; 3.16 µM with Trypanosoma cruzi [10]; greater than 39.8 µM in series [11]. In [12], this compound had an IC50 at 48 h greater than 100 µM.
Turning to `Cc1cc2ncn(-c3ccc([N+](=O)[O-])cc3C#N)c2cc1C`, the IC50 with Leishmania donovani [1] was greater than 50.1 µM; in the series with Trypanosoma cruzi [2], 1.26 µM; in the series with NIH3T3 it was greater than 50.1 µM; with Leishmania donovani [3] it was greater than 50.1 µM; with Leishmania donovani [4], greater than 50.1 µM; in the series with Trypanosoma cruzi [5] it was greater than 50.1 µM. In addition, the IC50 in the series with Leishmania donovani [6] was greater than 50.1 µM; in series [7] it was greater than 100 µM; in [8], greater than 39.8 µM; with Trypanosoma cruzi [9], 2 µM; with Trypanosoma cruzi [10] it was 0.794 µM; in series [11], 20 µM. Besides, in [12], the IC50 at 48 h was greater than 100 µM.
As to `O=C(CN(c1cccc(C(F)(F)F)c1)S(=O)(=O)c1ccc(Cl)cc1)NCc1ccc(F)c(F)c1`, the IC50 in the series on Leishmania donovani [1] was greater than 50.1 µM; with Trypanosoma cruzi [2], 0.794 µM; in the series on NIH3T3, 31.6 µM; with Leishmania donovani [3] it was greater than 50.1 µM; in the series with Leishmania donovani [4], 20 µM; in the series with Trypanosoma cruzi [5], greater than 50.1 µM. The IC50 was greater than 50.1 µM with Leishmania donovani [6]; 0.158 µM in [7]; 25.1 µM in [8]; 0.794 µM in the series on Trypanosoma cruzi [9]; 0.501 µM with Trypanosoma cruzi [10]; 10 µM in [11]. Further, in [12], the IC50 at 48 h was greater than 100 µM.
